How the values were obtained:
Type in all cases: in vivo
Wheat (Triso) [1] = experiment: Pre-emergence herbicidal effect and safener effect, wheat; settings: herbicide 100 g a.i./ha, no safener, visual scoring vs untreated controls
From the text: (§1) Seeds or rhizome pieces of mono- and dicotyledonous weed plants and crop plants were planted in peat pots in sandy loam and covered with earth. The herbicide/safener active ingredient combinations according to the invention, formulated as water-soluble powders or suspensions, and, in parallel experiments, the correspondingly formulated individual active ingredients were then applied to the surface of the covering earth at an application rate of 600 to 800 l of water/ha (converted) in a variety of dosages.
(§2) After the treatment, the pots were placed in the greenhouse and kept under good growth conditions for the weeds and the crop plants. Visual scoring of the plant damage or emergence damage was carried out after the test plants had emerged after a test period of 2 to 4 weeks, in comparison with untreated controls.

Wheat (Triso) [2] = experiment: Post-emergence herbicidal effect and safener effect, wheat; settings: herbicide 50 g a.i./ha, no safener
Experimental: (§3) Seeds or rhizome pieces of mono- and dicotyledonous harmful plants and of crop plants are planted in peat pots in sandy loam, covered with earth and grown in a greenhouse under good growth conditions. Alternatively to this, harmful plants occurring in the paddy rice cultivation are cultivated in pots in which water comes to 2 cm above the soil surface. 10 to 20 days after sowing, the test plants are treated in the one to three-leaf stage. The herbicide/safener active ingredient combinations according to the invention, formulated as water-soluble powders or suspensions, and, in parallel experiments, the correspondingly formulated individual active ingredients are sprayed onto the green plant parts in various dosages using an application rate of 300 l of water/ha (converted) and, after the test plants have remained in the greenhouse under optimum growth conditions for 2-3 weeks, the effect of the preparations is scored visually in comparison with untreated controls. In the case of rice or in the case of harmful plants which occur in the rice cultivation, the active ingredients are also placed directly into the irrigation water (application analogous to the so-called granules application) or sprayed onto plants and into the irrigation water.

Barley (Adonis) = experiment: Post-emergence herbicidal effect and safener effect, barley; settings: no safener
Experimental: as §3

Corn (Aventura) [3] = experiment: Pre-emergence herbicidal effect and safener effect, corn; settings: no safener
From the text: as §1, §2

Corn (Aventura) [4] = experiment: Post-emergence herbicidal effect and safener effect, corn; settings: herbicide 100 g a.i./ha, no safener
Experimental: as §3

COC(=O)c1nc(-c2ccc(Cl)nc2)cc(N)c1Cl [I-128, Methyl 4-amino-3-chloro-6-(6-chloro-3-pyridinyl)pyridine-2-carboxylate]
% Effect (without safener) (Wheat (Triso) [1]): 50% | % Effect (without safener) (Wheat (Triso) [2]): 40% | % Effect (without safener) (Barley (Adonis); herbicide 25 g a.i./ha): 30% | % Effect (without safener) (Barley (Adonis); herbicide 50 g a.i./ha): 20% | % Effect (without safener) (Corn (Aventura) [3]; herbicide 25 g a.i./ha): 50% | % Effect (without safener) (Corn (Aventura) [3]; herbicide 50 g a.i./ha): 65% | % Effect (without safener) (Corn (Aventura) [4]): 40%

Source: patent US8962523B2, “Herbicide/safener combination” (Bayer Cropscience AG, priority 2008, dated 2015)
